Laboratory results: patent publication US20100286069A1, “CATIONIC PEPTIDE FOR DELIVERING AN AGENT INTO A CELL” (priority 2007, published 2010)
Each block holds one substance with its values, some of them ahead of it. Where no end group is shown, it is not given here.

What was measured:
HEK293 cells [1] = assay: In vitro luciferase expression in HEK293 (Example 1); format: cell-based, human
Procedure: (§1) In vitro luciferase and GFP expression: HEK 293 and HepG2 cells were maintained in Dulbecco's modified Eagle's medium (DMEM) and 4T1 cells were cultured in RPMI 1640 growth medium at 37° C. with 5% CO2. All growth media used were completed with 10% fetal bovine serum, 100 μg/mL of streptomycin and 100 U/ml of penicillin.
(§2) One day before transfection, cells were seeded at a density that depended on the cell line and type of experiments. For the luciferase transfection assay, 0.5 mL of medium containing 5-8×10^4 cells were seeded into each well of a 24-well plate, while 1.0 mL of medium containing 1.8-2.0×10^5 cells were pipetted into each well of a 12-well plate for GFP expression. Peptide/DNA complexes were formed at various N/P ratios in 10 mM PBS (pH 7.0) by dripping equivolume solutions of peptide into DNA. The mixture was then vortexed for ˜10 seconds and left to stand for at least 30 minutes before usage. Meanwhile, all media were replaced with fresh ones. […]
(§3) Analysis for luciferase expression was carried out after 3 days. […] The relative light unit (RLU) was measured with a luminometer (Lumat LB 9507, EG&G Berthold) and normalized against the protein concentration as measured with a bicinchoninic acid protein assay kit (Pierce). Luciferase activity was finally expressed as RLU/mg protein ±standard deviation of at least 4 samples. […]

HepG2 cells = assay: In vitro luciferase expression in HepG2 (Example 1); format: cell-based, human
Procedure: as §1, §2, §3

HEK293 cells [2] = assay: GFP transfection assay in HEK293; format: cell-based, human
Procedure: as §1, §2
For the GFP transfection assay, cells were harvested after 2 days. […] The percentage of cells expressing GFP was then determined using a flow cytometer (FACSCalibur, Becton Dickinson) from 10,000 events and reported as a mean±standard deviation of at least 4 samples. […]

[3] = MTT cytotoxicity assay in 4T1 (Example 1); format: cell-based; conditions: mouse, 4T1 cells; read-out: cells viable at peak luciferase expression
Procedure: Cytotoxicity assay: Cells were seeded onto 96-well plates at a density of 6-10×10^3 cells/well. After 24 hours, all media were replaced with fresh ones and 10 μL of sample was introduced into each well. The sample consisted of either pure peptide or […] dissolved in the medium at the desired concentration. After 4 hours, all media were aspirated and replaced with fresh ones. Cytotoxicity analysis was carried out 3 days later by first replacing all wells with fresh media and adding 20 μL of MTT (5 mg/mL in PBS). After incubating for another 3 hours, all wells were carefully aspirated and replaced with 0.15 mL of DMSO to dissolve the internalized purple formazan crystals. The solution was homogenised and the relative colour intensity was measured with a microplate reader (PowerWave X, Bio-Tek Inc.). A test wavelength of 550 nm and a reference wavelength of 690 nm were used. Cell viability was represented by the average of (absorbance550 nm−absorbance690 nm) of the sample expressed as a percentage of the intensity of the controls ±standard deviation. Each data point was repeated at least 8 times.
For complexes of F, I and W, a peptide concentration of 0.02 and 0.10 mg/mL will approximately correspond to N/P ratio 5 and 25, respectively. For H, a peptide concentration of 0.03 and 0.09 mg/mL will approximately correspond to N/P ratio 10 and 30. […]

plasmid DNA = assay: Agarose gel electrophoresis DNA binding assay (Example 1); conditions: 10 mM PBS pH 7.0; for N/P ratio at which bulk electrophoretic migration of DNA is retarded: N/P = arginine residues to DNA phosphorus
Procedure: DNA binding and protection assays: Agarose gel electrophoresis was conducted to study the DNA binding ability of the peptides. The peptide/DNA complexes containing 2.5 μg of DNA per 50 μL of solution were formed at various N/P ratios. The complex solution (10 μL), together with 2 μL of loading dye (Promega), were then loaded into the wells of a 1.0 wt % agarose gel preloaded with 2 μL of ethidium bromide (per 50 mL of gel solution), and electrophoresed at 80 V for 50 minutes prior to imaging (ChemiGenius Q, Syngene).
To evaluate the ability of the peptides to fully condense DNA so as to prevent its premature degradation en route to the nuclei of cells, plasmid DNA encoding the 6.4 kb firefly luciferase (pCMV-luciferase VR1255_C) driven by the cytomegalovirus (CMV) promoter (Carl Wheeler, Vical, U.S.A.) was bound to each peptide in 10 mM phosphate-buffered saline (PBS, pH 7.0) at various N/P ratios (defined here as the molar ratio of arginine residues in the peptide to the phosphorus content in DNA). Gel electrophoresis assays were then performed.

[4] = Zeta potential of pure peptide; format: physicochemical
DNA = assay: Kinetics of DNA capture (PicoGreen); format: binding
Procedure: Upon condensation of the DNA, however, PicoGreen becomes excluded resulting in a drop in florescent intensity. Making use of this behavior, the kinetics of the DNA capturing process was traced and quantified. At time=0, the peptide solution was dripped into the DNA solution and vortexed for ˜10 seconds. At appropriate time intervals, 10 μL of the complex solution was taken out and mixed with 990 μL of PicoGreen working solution (diluted 400 times from its stock solution with TE buffer, pH 7.3). The fluorescence emission spectrum was then recorded with a Fluorolog LFI 3751 fluorescence spectrometer (Jobin Yvon Horiba). The excitation wavelength used was 480 nm and the silts were set to 4 nm. The fluorescence area intensity at any time point expressed as a percentage of the fluorescence intensity obtained with the initial concentration of DNA (before mixing with peptide) was used to reflect the concentration of uncaptured/loosely captured DNA. A profile was plotted to trace the temporal evolution of the DNA capturing process. Blanks and background were corrected for in all calculations.
To further understand the efficiency and kinetics of DNA capture by the peptides, PicoGreen was used as a sensitive fluorescence probe. […] This behavior can be employed to trace the temporal evolution of free/loosely bound DNA in solution.

[5] = tested on: subcutaneous 4T1 breast tumors; assay: In vivo luciferase expression in 4T1 tumor-bearing mice
Procedure: In vivo luciferase expression: Female Balb/c mice (Centre for Animals Resources, National University of Singapore) weighing 18-20 g were subcutaneously injected with 0.1 mL of serum-free RPMI 1640 containing 4×10^5 4T1 cells. A tumor was then allowed to develop in each mouse for 10-12 days. PEI and different formulations of I/DNA complexes were prepared as above, and 30 μl of sample containing 4 μg of DNA was injected directly into each tumor. The tumor tissues were harvested two days later. To analyse for luciferase activity, each tumor was first thoroughly homogenised in lysis buffer, followed by two further freeze-thaw cycles. The mixture was then centrifuged and assayed for its luciferase activity as described above. Expression level was given as RLU/mg protein ±standard deviation of at least 4 mice.
Finally, the in vivo gene transfection capacity of the peptides was evaluated by performing luciferase expression experiments with peptide I on mice bearing subcutaneous 4T1 breast tumors. […] This may be because the amount of DNA being delivered by the supernatant and sediment formulations was smaller. The large DNA complexes might also not be uniformly distributed in the tumor, limiting the cellular uptake of the large complexes. […]

4T1 cells = assay: In vitro luciferase expression in 4T1 (Example 1); format: cell-based, mouse
Procedure: as §1, §2, §3

[6] = tested on: HEK293, HepG2 and 4T1 cells; assay: In vitro luciferase expression, all three cell lines (Example 1); format: cell-based, human, mouse; conditions: all cell lines tested
Procedure: as §1, §2, §3

Substance: FFFFFHHHHRRRRRRRR-NH2 [F, NH2—F5H4R8—CONH2]
- luciferase expression level compared among the peptides (HEK293 cells [1]): highest luciferase expression level
- luciferase expression level, times that of PEI (HEK293 cells [1]): 0.8 times
- luciferase expression level compared among the peptides (HepG2 cells): highest luciferase expression level
- luciferase expression level, times that of PEI (HepG2 cells): 0.2 times
- proportion of cells transfected with the GFP gene, comparison (HEK293 cells [2]): transfected more HEK293 cells with the GFP gene than H

- N/P ratio from which ethidium bromide is completely excluded from the condensed DNA (plasmid DNA): ≥ 5
- N/P ratio at which bulk electrophoretic migration of DNA is retarded (plasmid DNA): 2
- zeta potential of pure peptide [4]: 15.8±0.2 mV
Substance: IIIIIHHHHRRRRRRRR-NH2 [I, NH2—I5H4R8—CONH2]
- viability at 4 h [3]: ~90%
- quenching of PicoGreen fluorescence compared with H (DNA): to a greater extent
- gene expression in mouse breast cancer model compared with PEI [5]: much more efficiently than PEI
- luciferase expression level compared among the peptides (4T1 cells; 4T1): optimal
- peak luciferase expression level, times higher than PEI (4T1 cells; 4T1 cells, PEI branched Mw 25,000): 6.4 times

Substance: NH2—H4R8—CONH2
- N/P ratio at which bulk electrophoretic migration of DNA is retarded (plasmid DNA): 5
- zeta potential of pure peptide [4]: 8.0±0.2 mV

Substance: NH2—W5H4R8—CONH2 (H-WWWWWHHHHRRRRRRRR-NH2)
- gene expression level compared among the peptides [6]: lowest gene expression level
